Results as given in patent publication US20200157195A1, “14-3-3 Antagonists for the Prevention and Treatment of Arthritis” (THE UNIVERSITY OF BRITISH COLUMBIA, priority 2007, published 2020).
The star is where a group is joined. Biotin = O=C1N[C@H]2[C@H](CS[C@H]2CCCCC(=O)*)N1

Assays:
[1] = test system: MMP-1 expression in dermal fibroblasts induced by extracellular 14-3-3 protein; experiment: MMP-1 expression in dermal fibroblasts treated with KLCCM after R-18 pull-down of 14-3-3 proteins; format: cell-based
Excerpt: The KLCCM used in these experiments was taken from day 28 of cell transdifferentiation due to their high capacity of inducing MMP-1 expression in dermal fibroblasts (data not shown). […] As negative control, dermal fibroblasts treated with medium that was not conditioned (DMEM (49%), KSFM (49%) plus 2% FBS) were used (“Pull-down”−).

[2] = test system: association of 14-3-3 proteins with Raf-1; conditions: Wang et al. 1999; cited from earlier work

Substance | reduction of MMP-1 expression ([1]; pre-treatment of KLCCM with biotinylated R-18 and avidin sepharose (pull-down), dermal fibroblasts, MMP-1/β-actin densitometry) [%] | inhibition of induction of MMP-1 expression by extracellular 14-3-3 protein (in words) ([1]; FIG. 5 legend) | blocking the association of 14-3-3 proteins with Raf-1 [2]
Biotin-PHCVPRDLSWLDLEANMCLP-OH (cysteine pairing not given here) [biotinylated R-18] | 68.8 | – | –
R-18: small peptide 14-3-3 antagonist (Wang et al. 1999) capable of blocking the association of 14-3-3 proteins with Raf-1 (Biotin-PHCVPRDLSWLDLEANMCLP-OH; not fully specified; cysteine pairing not given here) | – | inhibits induction of MMP-1 expression | capable of blocking the association of 14-3-3 proteins with Raf-1
